# Values quoted from earlier work as cited in patent publication US9854827B2, “Sweetener” (Tate & Lyle Ingredients Americas LLC, priority 2013, dated 2018).
# Details: % of the sweetness of sucrose
smiles,measurement,value
"O=C(CO)C(O)C(O)C(O)CO (stereo not shown) [Allulose, allulose]",sweetness relative to sucrose,around 70%
